Source: US20160279063A1, “COMPOSITION OF EXCIPIENTS AND PHARMACEUTICAL FORMS WITH SUSTAINED RELEASE AND INCREASED BIOAVAILABILITY OF ANTIBACTERIAL DRUGS, ANTICOCCIDIAL DRUGS AND OTHER DRUGS FOR COMMERCIAL POULTRY AND PIGS” (priority 2012, published 2016)
Counter-ions that a name gives are not always drawn. Like-named read-outs stand apart in the source and are kept apart here.

Experiments:
[1] = cited from earlier work
[2] = pigs, cited from earlier work; for F (bioavailability): conventional oral administration
[3] = Tylosin tartrate pharmacokinetics, FOLA vs commercially available, 200 ppm in food; type: in vivo, commercial poultry; conditions: when included in FOLA system, food ad libitum, poultry of 1.9 kg
Description: Note generation of concentrations quite higher than traditional system (Cmax, MRT and AUC), which makes suitable its PK/PD ratio when included in FOLA system.
For Tylosin in commercial poultry, very high concentrations are achieved when FOLA system is used and which remain with therapeutic effect along night as shown in charts of FIGS. 4a and 4b. Variables disclosed below are pharmacokinetically obtained for tylosin in FOLA and a commercially available reference preparation: […]

[4] = Florphenicol pharmacokinetics, FOLA vs commercially available, 20 mg/kg, 3 days; type: in vivo, commercial poultry; conditions: along three days, 20 mg/kg in food, when included in FOLA system
Procedure: Note generation of concentrations higher than traditional system (Cmax, MRT and AUC), which makes suitable its PK/PD ratio when included in FOLA system.
Note a generation of concentrations lower than 3 μg/mL, making suitable its PK/PD ratio when included in FOLA system.
Tests in Commercial Poultry
Variables disclosed below are pharmacokinetically obtained for florphenicol in FOLA and a commercially available reference preparation administered during 3 days: […]

[5] = humans; cited from earlier work
[6] = Background bioavailability and elimination of drugs in pigs; conditions: associated to FOLA system, single dose in the morning with food
Description: Serum concentrations are not reached by night and in breeding sows doses should be 3000 ppm as they only eat an average of 2 kg with a weight of 300 kg. This is obviously not performed as they would reject food. • Tylosin and tiamulin are often underdosed due to costs. […] FOLA system achieves that easily even better than if that would have been injected. • Provision of phosphomycin in food is not useful since its F is below 20% and is eliminated in a few hours. Associated to FOLA system the results allow a single dose in the morning with food reaching F close to 100% and during 24 hours.

[7] = commercial poultry, conventional oral administration

In the case of CN(C)[C@@H]1C(O)=C(C(N)=O)C(=O)[C@@]2(O)C(O)=C3C(=O)c4c(O)cccc4[C@@](C)(O)[C@H]3[C@H](O)[C@@H]12 [Oxytetracycline], the “F (bioavailability)” value [1, 7] is listed as 20% and the “F (bioavailability)” value ([1]; commercial poultry, conventional oral administration, listed as oxytetracycline base) is listed as “around 20%”.
For CCC[C@@H]1C[C@@H](C(=O)N[C@@H]([C@H]2O[C@H](SC)[C@H](O)[C@@H](O)[C@H]2O)[C@@H](C)O)N(C)C1 [Lincomycin], the life [2] is given as ≥ 20%.
For CN(C)[C@@H]1C(O)=C(C(N)=O)C(=O)[C@@]2(O)C(O)=C3C(=O)c4c(O)ccc(Cl)c4[C@@](C)(O)[C@H]3C[C@@H]12 [chlortetracycline], the “F (bioavailability)” value [1, 7] is listed as 20%.
For CN[C@@H]1[C@H](O)[C@H](NC)[C@H]2O[C@@]3(O)C(=O)C[C@@H](C)O[C@H]3O[C@@H]2[C@H]1O [Spectinomycin], the “F (bioavailability)” value [2] is given as 7%.
For CC[C@H]1OC(=O)C[C@@H](O)[C@H](C)[C@@H](O[C@@H]2O[C@H](C)[C@@H](O[C@H]3C[C@@](C)(O)[C@@H](O)[C@H](C)O3)[C@H](N(C)C)[C@H]2O)[C@@H](CC=O)C[C@@H](C)C(=O)/C=C/C(C)=C/[C@@H]1CO[C@@H]1O[C@H](C)[C@@H](O)[C@@H](OC)[C@H]1OC [Tylosin], the “F (bioavailability)” value [1, 7] is listed as < 40%.
With CC[C@H]1OC(=O)C[C@@H](O)[C@H](C)[C@@H](O[C@@H]2O[C@H](C)[C@@H](O[C@H]3C[C@@](C)(O)[C@@H](O)[C@H](C)O3)[C@H](N(C)C)[C@H]2O)[C@@H](CC=O)C[C@@H](C)C(=O)/C=C/C(C)=C/[C@@H]1CO[C@@H]1O[C@H](C)[C@@H](O)[C@@H](OC)[C@H]1OC [tylosin tartrate] the “concentrations reached (FIG. 4b)” value [3] was “exceeding 1.5 μg/mL”.
In the case of CS(=O)(=O)c1ccc([C@@H](O)[C@@H](CF)NC(=O)C(Cl)Cl)cc1 [Florphenicol], the “serum concentrations (FIG. 8b)” value [4] is reported as “lower than 3 μg/mL”.
For COc1cc(Cc2cnc(N)nc2N)cc(OC)c1OC [TMP, trimethoprim], the T½β ([1]; birds) is given as 1 h, the elimination half-life [2] is given as 1 h and the T½β [5] is given as 10 h.
In the case of C[C@@H]1O[C@@H]1P(=O)(O)O [Phosphomycin], the “time to removal from plasma and tissues” value ([1]; in water, usual doses 10-40 mg/kg/day) is listed as 6 to 8 h, the “F (bioavailability)” value [6] is listed as ~100% and the “F (bioavailability)” value [2] is listed as “below 20%”.
For CC[C@H]1OC(=O)[C@H](C)[C@@H](O[C@H]2C[C@@](C)(OC)[C@@H](O)[C@H](C)O2)[C@H](C)[C@@H](O[C@@H]2O[C@H](C)C[C@H](N(C)C)[C@H]2O)[C@](C)(O)C[C@@H](C)C(=O)[C@H](C)[C@@H](O)[C@]1(C)O [Erithromycin], the “F (bioavailability)” value ([1]; in vivo, po) is listed as 18%.
